# Data as given in patent US20150005348A1, “AMIDE COMPOUND AND USE THEREOF FOR PEST CONTROL” (SUMITOMO CHEMICAL COMPANY, LIMITED, priority 2012, published 2015).
# System: last instar larvae of common house mosquitos (Culexpipienspallens)
# Assay: Larval mortality test on common house mosquitos in treated water (Test Example 5)
# Format: in vivo
# Settings: Culicidae, 192 h; active ingredient 3.5 ppm in ion-exchanged water; 20 last instar larvae; observed after 8 days
# Protocol: Each of the formulations of Compounds (4), (5), (11) and (12) of the present invention obtained in Formulation Example 15 was diluted with water, so as to have a concentration of active ingredient of 500 ppm, to prepare a test drug solution.
# 0.7 ml of the test drug solution was added to 100 ml of ion-exchanged water (a concentration of active ingredient of 3.5 ppm).
row,SMILES,mortality at 3.5 ppm
1,"O=C(/C=C/CCCCCCc1ccccc1)NCC1CCOCC1 [Compound (11), (E)-N-(tetrahydropyran-4-ylmethyl)-9-phenyl-2-noneneamide]",≥ 95%
2,"O=C(/C=C/CCCCCCCc1ccccc1)NCC1CCOC1 (stereo not shown) [Compound (5), (E)-N-(tetrahydrofuran-3-ylmethyl)-10-phenyl-2-deceneamide]",≥ 95%
3,"C/C(=C\C(=O)NCC1CCOCC1)CCCc1ccccc1 [Compound (12), (E)-N-(tetrahydropyran-4-ylmethyl)-3-methyl-6-phenyl-2-hexeneamide]",≥ 95%
4,"O=C(/C=C/CCCCCCc1ccccc1)NCC1CCOC1 (stereo not shown) [Compound (4), (E)-N-(tetrahydrofuran-3-ylmethyl)-9-phenyl-2-noneneamide]",≥ 95%
